The values below come from patent publication US20090047279A1, “(R)-N-Stereoisomers of 7,8-Saturated-4,5-Epoxy-Morphinanium Analogs” (Progenics Pharmaceuticals, Inc., priority 2006, published 2009).

Where a name gives a salt, the structure may show the parent alone.

Assay [1] relates to μ-opioid receptors. Put plainly: Evaluation of agonist activity, guinea pig ileum test. The conditions noted are these: for Response to the compound + Naloxone (1.0E−07 M): compound 1.0E−04 M + naloxone 1.0E−07 M. On the procedure: (§1) Agonist/antagonist activity at the μ-opioid receptor was determined using the well known guinea pig ileum test. Briefly, an a section of ileum section was placed in a stabilizing solution in a tensed state. Transducers were used to measure changes in tension upon electrical stimulation to the tissue before and after challenge with a potential agonist/antagonist Using a control, constriction inhibition, and constriction inhibition cancellation, may be measured.
(§2) The results are expressed as a percent of the control response to DAMGO (decrease in which contract amplitude)

Assay [2] deals with μ-opioid receptors. In words: Evaluation of antagonist activity, guinea pig ileum test (responses to DAMGO). The protocol:
as §1, §2

The mark [3] stands for this setting: 1.0E−08 M, control DAMGO 1.0E−07 M = 100.

`C[N@+]1(CC2CCCC2)CC[C@]23c4c5ccc(O)c4O[C@H]2C(=O)CC[C@@]3(O)[C@H]1C5` [(R)-CPTM, (R)-17-cyclopentylmethyl-4,5α-epoxy-3,14-dihydroxy-17-methyl-6-oxomorphinanium iodide]: the “Responses to increasing concentrations of the compounds” value (“Responses to increasing concentrations” below) is 18% of the control response to DAMGO with μ-opioid receptors [1] (1.0E−04 M); 0% of the control response to DAMGO in the assay with μ-opioid receptors [1] (1.0E−05 M); 0% of the control response to DAMGO with μ-opioid receptors [1] (1.0E−06 M); 0% of the control response to DAMGO with μ-opioid receptors [1] (1.0E−07 M); 0% of the control response to DAMGO in the assay on μ-opioid receptors [1] (setting [3]); 12% of the control response to DAMGO in the assay on μ-opioid receptors [1] (3.0E−05 M). The “Responses to increasing concentrations” value with μ-opioid receptors [1] (3.0E−06 M), in the assay on μ-opioid receptors [1] (3.0E−07 M) and with μ-opioid receptors [1] (3.0E−08 M) was 0% of the control response to DAMGO each time. Besides, in the assay with μ-opioid receptors [1], the “Response to the compound + Naloxone (1.0E−07 M)” value was 18% of the control response to DAMGO. Besides, the “Responses to DAMGO (1.0E−07 M) in the presence of increasing concentrations of the compounds” value was 40% of the control response to DAMGO in the assay with μ-opioid receptors [2] (1.0E−04 M); 28% of the control response to DAMGO in the assay with μ-opioid receptors [2] (1.0E−05 M); 21% of the control response to DAMGO with μ-opioid receptors [2] (1.0E−06 M); 84% of the control response to DAMGO in the assay with μ-opioid receptors [2] (1.0E−07 M); 100% of the control response to DAMGO with μ-opioid receptors [2] (1.0E−08 M); 34% of the control response to DAMGO in the assay on μ-opioid receptors [2] (3.0E−05 M). In addition, the “Responses to DAMGO (1.0E−07 M) in the presence of increasing concentrations of the compounds” value in the assay on μ-opioid receptors [2] (3.0E−06 M) was −1% of the control response to DAMGO; in the assay on μ-opioid receptors [2] (3.0E−07 M) it was 63% of the control response to DAMGO; in the assay on μ-opioid receptors [2] (3.0E−08 M), 96% of the control response to DAMGO.

Consider `CCCOC1C[C@@H](O)[C@@H]2Oc3c(O)ccc4c3[C@@]23CC[N+](C)(CC2CC2)[C@H](C4)[C@]13O` (stereo partly drawn) [(R)-CPM, trifluoroacetate], for which the “Responses to increasing concentrations” value in the assay on μ-opioid receptors [1] (1.0E−04 M) was 22% of the control response to DAMGO; with μ-opioid receptors [1] (1.0E−05 M) it was 0% of the control response to DAMGO; in the assay with μ-opioid receptors [1] (1.0E−06 M) it was 0% of the control response to DAMGO; in the assay with μ-opioid receptors [1] (1.0E−07 M), 0% of the control response to DAMGO; with μ-opioid receptors [1] (setting [3]), 0% of the control response to DAMGO; in the assay with μ-opioid receptors [1] (3.0E−05 M), 5% of the control response to DAMGO. In addition, the “Responses to increasing concentrations” value in the assay on μ-opioid receptors [1] (3.0E−06 M), in the assay on μ-opioid receptors [1] (3.0E−07 M) and in the assay on μ-opioid receptors [1] (3.0E−08 M) was 0% of the control response to DAMGO throughout. Further, the “Response to the compound + Naloxone (1.0E−07 M)” value in the assay on μ-opioid receptors [1] is 17% of the control response to DAMGO. The “Responses to DAMGO (1.0E−07 M) in the presence of increasing concentrations of the compounds” value in the assay with μ-opioid receptors [2] (1.0E−04 M) is given as 22% of the control response to DAMGO; in the assay with μ-opioid receptors [2] (1.0E−05 M), 5% of the control response to DAMGO; in the assay on μ-opioid receptors [2] (1.0E−06 M) it was 32% of the control response to DAMGO; in the assay on μ-opioid receptors [2] (1.0E−07 M) it was 90% of the control response to DAMGO; in the assay with μ-opioid receptors [2] (1.0E−08 M), 100% of the control response to DAMGO; in the assay with μ-opioid receptors [2] (3.0E−05 M), 12% of the control response to DAMGO. The figures for the “Responses to DAMGO (1.0E−07 M) in the presence of increasing concentrations of the compounds” value with μ-opioid receptors [2] (3.0E−06 M), in the assay with μ-opioid receptors [2] (3.0E−07 M) and in the assay on μ-opioid receptors [2] (3.0E−08 M) were 11% of the control response to DAMGO, 69% of the control response to DAMGO and 100% of the control response to DAMGO, respectively.

Take `C[C@@H](NC(=O)[C@@H](N)Cc1ccc(O)cc1)C(=O)NCC(=O)N(C)[C@@H](Cc1ccccc1)C(=O)NCCO` [DAMGO, reference compound]: the “Responses to increasing concentrations” value is recorded as 103% of the control response to DAMGO in the assay with μ-opioid receptors [1] (1.0E−06 M), 96% of the control response to DAMGO in the assay on μ-opioid receptors [1] (1.0E−07 M), 57% of the control response to DAMGO in the assay on μ-opioid receptors [1] (setting [3]) and 9% of the control response to DAMGO in the assay with μ-opioid receptors [1] (1.0E−09 M). Moreover, the “Response to DAMGO + Naloxone (1.0E−07 M)” value in the assay with μ-opioid receptors [1] (DAMGO after the highest concentration, + naloxone 1.0E−07 M) was 4% of the control response to DAMGO.
